Experiments:
[1] = test system: LasR dependent quorum sensing controlled promoter, prsaL (reporter strain MW1.pUM15); experiment: Signal Reception Assay (SRA), inhibition of the reporter in the presence of 0.3 μM 3-oxo-C12-HSL; type: cell-based, Pseudomonas aeruginosa; details: compound at 100 μM
Source text: (§1) The CSA yields a fluorescent signal reporting both signal synthesis and signal reception. The SRA yields a fluorescent signal due to signal reception. Compounds affecting signal reception can be detected by SRA. The SRA can detect compounds that modulate quorum sensing by inhibiting signal reception or activating signal reception. Inhibitor compounds are identified by performing the SRA with exogenous autoinducer at a concentration of half maximal activation and detecting changes in fluorescence indicative of inhibition of signal reception. Activator compounds are identified by performing the SRA in the absence of exogenous autoinducer.
The plasmid pUM15 carries a YFP reporter under control of a LasR dependent quorum sensing controlled promoter, prsaL. […] This is referred to as the Signal Reception Assay, as only those compounds that modulate signal reception will be detected.
Cells were grown in LB with 50 mM 3-(N-morpholino)propanesulfonic acid (MOPS) pH 7.0, 300 μg/mL carbenicillin. A single colony of MW1.pUM15 from a freshly struck plate was used to inoculate a starter culture and grown shaking at 30° C. not above an absorbance at 600 nm (A600) of 1.5. […]
Nanoplate format: Assay reagents were dispensed with the flying reagent dispenser, FRD (Vertex Pharmaceuticals Incorporated, San Diego, Calif.). […] Fluorescence was read with a SpectroFluor Plus plate reader (Tecan US, Durham, N.C.). […]

[2] = test system: LasR dependent quorum sensing controlled promoter, prsaL (reporter strain MW1.pUM15); experiment: Signal Reception Assay (SRA), activation of the reporter in the absence of an activating signal; type: cell-based, Pseudomonas aeruginosa; details: for activation of the reporter (agonist activity): compound at 100 μM, absence of an activating signal, SRA, MW1.pUM15
Source text: as §1
The plasmid pUM15 carries a YFP reporter under control of a LasR dependent quorum sensing controlled promoter, prsaL. When the plasmid is harbored by MW1, a strain lacking the ability to produce acylated homoserine lactones, the reporter is induced only in the presence of exogenous autoinducer. This is referred to as the Signal Reception Assay, as only those compounds that modulate signal reception will be detected.
Cells were grown in LB with 50 mM 3-(N-morpholino)propanesulfonic acid (MOPS) pH 7.0, 300 μg/mL carbenicillin. A single colony of MW1.pUM15 from a freshly struck plate was used to inoculate a starter culture and grown shaking at 30° C. not above an absorbance at 600 nm (A600) of 1.5. Cells were subcultured to A600 of 0.05 and grown shaking at 37° C. for 1-2 h. These mid-logarithmic cells were then added to dried down 3-oxo-C12-HSL to result in a final concentration of 0.3 μM. Induced cells were pipetted into wells containing the test compound. Uninduced cells were included as a control for the assay window. When the assay was used to characterize a potential activator, no homoserine lactone was added.
Nanoplate format: Assay reagents were dispensed with the flying reagent dispenser, FRD (Vertex Pharmaceuticals Incorporated, San Diego, Calif.). An aliquot of 1.5 μL reporter culture was added to wells in 3,456-well plates (3456 plates) and grown for 8-12 h before reading fluorescence with the topography-compensating plate reader, tcPR (Vertex Pharmaceuticals Incorporated, San Diego, Calif.). DR96 format: an aliquot of 50 μL culture was added to 96 well plate and grown for 6-8 h. Fluorescence was read with a SpectroFluor Plus plate reader (Tecan US, Durham, N.C.).
In all formats, plates were sealed in a humidified container and incubated staticly at 37° C. Fluorescence measurements were made with an excitation wavelength of 485 nm and emission wavelength of […]. To evaluate growth in the presence of test compound, the absorbance at 620 nm was also recorded.
The compounds in Table 2 were purchased from Chembridge Corp. (San Diego, Calif.), Specs (Wakefield, R.I.), Interbioscreen Ltd. (Moscow, Russia) and Chemical Diversity Labs, Inc. (San Diego, Calif.), and were characterized with the reporter strain MW1.pUM15 in both microtiter plate format and a shaking tube format. […] The tube format was performed to eliminate plate effects that may mask low levels of inhibition.
In both formats, the compounds were tested for (1) activation of the reporter in the absence of an activating signal, and (2) inhibition of the reporter in the presence of 0.3 μM 3-oxo-C12-HSL. All compounds were tested at 100 μM for their ability to activate or inhibit quorum sensing using the SRA assay. […]

O=C(Nc1ccccc1NC(=O)c1cccc(Cl)c1)c1cccc(Cl)c1 [Compound 1]
inhibition of the reporter (antagonist activity) [1]: largest degree of inhibition

O=C(Oc1c(Br)cc(Br)cc1CNC(=O)c1ccccc1Cl)c1ccc(F)cc1 [Compound 2]
activation of the reporter (agonist activity) [2]: activating effects

Cc1ccccc1C(=O)Oc1c(Br)cc(Br)cc1CNC(=O)c1ccccc1Cl [Compound 3]
activation of the reporter (agonist activity) [2]: activating effects

Cc1cc(C)c(OC(=O)c2ccc(Cl)cc2Cl)c(CNC(=O)c2ccccc2Cl)c1 [Compound 4]
activation of the reporter (agonist activity) [2]: activating effects

O=C(NCc1cc(Br)cc(Br)c1OC(=O)c1ccccc1[N+](=O)[O-])c1ccccc1Cl [Compound 5]
activation of the reporter (agonist activity) [2]: activating effects
activation efficacy (FIG. 2), compared with 3-oxo-C12-HSL ([2]; fluorescence in the SRA as a function of concentration, in the presence of 0.75% DMSO): an activating effect equal to 3-oxo-C12-HSL but at reduced concentrations
